Results: ChEMBL document CHEMBL1201862, “PubChem BioAssay data set” (2004)
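The compound was tested at five concentrations on cells cultured in 96-well plates, with a 48-hour exposure period. The concentration for 50% growth inhibition is given as GI50.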 Activity calls are given as the source filed them. Rule as the data show it: active = GI50 up to about 1.1 µM and inactive = higher.

Columns and labels:
Experiment in all cases: DTP human tumour cell line panel, 48 h
ACHN = system: ACHN
UACC-62 = system: UACC-62
SK-MEL-5 = system: SK-MEL-5
SNB-19 = system: SNB-19
NCI-H522 = system: NCI-H522
SR = system: SR
NCI/ADR-RES = system: NCI/ADR-RES
OVCAR-8 = system: OVCAR-8
Hs-578T = system: Hs-578T
786-0 = system: 786-0
HOP-92 = system: HOP-92
NCI-H23 = system: NCI-H23
SNB-75 = system: SNB-75
NCI-H226 = system: NCI-H226
SF-268 = system: SF-268
K562 = system: K562
U-251 = system: U-251
TK-10 = system: TK-10
OVCAR-5 = system: OVCAR-5
SW-620 = system: SW-620
SF-295 = system: SF-295
RXF 393 = system: RXF 393
HL-60 = system: HL-60
CCRF-CEM = system: CCRF-CEM
M14 = system: M14
RPMI-8226 = system: RPMI-8226
BT-549 = system: BT-549
PC-3 = system: PC-3
DU-145 = system: DU-145
OVCAR-3 = system: OVCAR-3
IGROV-1 = system: IGROV-1
MDA-MB-435 = system: MDA-MB-435
HOP-62 = system: HOP-62
MDA-N = system: MDA-N
SK-MEL-28 = system: SK-MEL-28
HCT-15 = system: HCT-15
T47D = system: T47D
NCI-H460 = system: NCI-H460
Malme-3M = system: Malme-3M
SK-OV-3 = system: SK-OV-3
HT-29 = system: HT-29
SN12C = system: SN12C
EKVX = system: EKVX
CAKI-1 = system: CAKI-1
MOLT-4 = system: MOLT-4
KM12 = system: KM12
A549 = system: A549
OVCAR-4 = system: OVCAR-4
LOX IMVI = system: LOX IMVI
HCC 2998 = system: HCC 2998
MDA-MB-231 = system: MDA-MB-231
HCT-116 = system: HCT-116
MCF7 = system: MCF7
COLO 205 = system: COLO 205
UO-31 = system: UO-31
A498 = system: A498
SK-MEL-2 = system: SK-MEL-2
SF-539 = system: SF-539
UACC-257 = system: UACC-257

SMILES: COC(=O)C(Cc1ccccc1)NC(=O)CCCNC(=O)OCc1ccccc1 (stereo not drawn)
- GI50 (ACHN): 33 µM (inactive)
- GI50 (UACC-62): 49.9 µM (inactive)
- GI50 (SK-MEL-5): 22.4 µM (inactive)
- GI50 (SNB-19): > 100 µM (inactive)
- GI50 (NCI-H522): > 100 µM (inactive)
- GI50 (SR): 44.7 µM (inactive)
- GI50 (NCI/ADR-RES): > 100 µM (inactive)
- GI50 (OVCAR-8): > 100 µM (inactive)
- GI50 (Hs-578T): > 100 µM (inactive)
- GI50 (786-0): > 100 µM (inactive)
- GI50 (HOP-92): 99.1 µM (inactive)
- GI50 (NCI-H23): > 100 µM (inactive)
- GI50 (SNB-75): > 100 µM (inactive)
- GI50 (NCI-H226): > 100 µM (inactive)
- GI50 (SF-268): > 100 µM (inactive)
- GI50 (K562): > 100 µM (inactive)
- GI50 (U-251): > 100 µM (inactive)
- GI50 (TK-10): > 100 µM (inactive)
- GI50 (OVCAR-5): > 100 µM (inactive)
- GI50 (SW-620): > 100 µM (inactive)
- GI50 (SF-295): > 100 µM (inactive)
- GI50 (RXF 393): < 0.01 µM (active)
- GI50 (HL-60): 33.7 µM (inactive)
- GI50 (CCRF-CEM): 41 µM (inactive)
- GI50 (M14): 17.1 µM (inactive)
- GI50 (RPMI-8226): 87.3 µM (inactive)
- GI50 (BT-549): > 100 µM (inactive)
- GI50 (PC-3): > 100 µM (inactive)
- GI50 (DU-145): > 100 µM (inactive)
- GI50 (OVCAR-3): > 100 µM (inactive)
- GI50 (IGROV-1): > 100 µM (inactive)
- GI50 (MDA-MB-435): 86.1 µM (inactive)
- GI50 (HOP-62): > 100 µM (inactive)
- GI50 (MDA-N): 63.7 µM (inactive)
- GI50 (SK-MEL-28): 48.2 µM (inactive)
- GI50 (HCT-15): > 100 µM
- GI50 (T47D): 71.3 µM (inactive)
- GI50 (NCI-H460): > 100 µM (inactive)
- GI50 (Malme-3M): 7.33 µM (inactive)
- GI50 (SK-OV-3): > 100 µM (inactive)
- GI50 (HT-29): > 100 µM (inactive)
- GI50 (SN12C): > 100 µM (inactive)
- GI50 (EKVX): > 100 µM (inactive)
- GI50 (CAKI-1): > 100 µM (inactive)
- GI50 (MOLT-4): 29.2 µM (inactive)
- GI50 (KM12): > 100 µM (inactive)
- GI50 (A549): > 100 µM (inactive)
- GI50 (OVCAR-4): > 100 µM (inactive)
- GI50 (LOX IMVI): > 100 µM (inactive)
- GI50 (HCC 2998): > 100 µM (inactive)
- GI50 (MDA-MB-231): > 100 µM (inactive)
- GI50 (HCT-116): > 100 µM (inactive)
- GI50 (MCF7): > 100 µM (inactive)
- GI50 (COLO 205): 77.4 µM (inactive)
- GI50 (UO-31): > 100 µM (inactive)

SMILES: O=C1/C(=C/c2ccccc2S)N=C(c2ccccc2)N1c1ccc2c(c1)Sc1cc(N3C(=O)/C(=C/c4ccccc4S)N=C3c3ccccc3)ccc1N2
- GI50 (ACHN): 18.6 µM (inactive)
- GI50 (UACC-62): 20.1 µM (inactive)
- GI50 (SK-MEL-5): 17 µM (inactive)
- GI50 (SNB-19): 16.7 µM (inactive)
- GI50 (SR): 15.7 µM (inactive)
- GI50 (NCI/ADR-RES): 35.5 µM (inactive)
- GI50 (OVCAR-8): 19.4 µM (inactive)
- GI50 (Hs-578T): 25.6 µM (inactive)
- GI50 (786-0): 22.9 µM (inactive)
- GI50 (HOP-92): 14.9 µM (inactive)
- GI50 (SNB-75): 15.8 µM (inactive)
- GI50 (SF-268): 19.5 µM (inactive)
- GI50 (K562): 22 µM (inactive)
- GI50 (A498): 19.1 µM (inactive)
- GI50 (U-251): 19.7 µM (inactive)
- GI50 (TK-10): 17.4 µM (inactive)
- GI50 (OVCAR-5): 18.7 µM (inactive)
- GI50 (SW-620): 19.8 µM (inactive)
- GI50 (SF-295): 16.8 µM (inactive)
- GI50 (CCRF-CEM): 15.2 µM (inactive)
- GI50 (SK-MEL-2): 23.8 µM (inactive)
- GI50 (M14): 17.9 µM (inactive)
- GI50 (RPMI-8226): 19 µM (inactive)
- GI50 (BT-549): 26.7 µM (inactive)
- GI50 (PC-3): 21.4 µM (inactive)
- GI50 (DU-145): 19.2 µM (inactive)
- GI50 (OVCAR-3): 18.8 µM (inactive)
- GI50 (IGROV-1): 15.7 µM (inactive)
- GI50 (MDA-MB-435): 21.1 µM (inactive)
- GI50 (HOP-62): 25.6 µM (inactive)
- GI50 (SF-539): 11.8 µM (inactive)
- GI50 (MDA-N): 23.8 µM (inactive)
- GI50 (SK-MEL-28): 21.7 µM (inactive)
- GI50 (HCT-15): 31.6 µM
- GI50 (T47D): 22.7 µM (inactive)
- GI50 (NCI-H460): 23.7 µM (inactive)
- GI50 (UACC-257): 20.4 µM (inactive)
- GI50 (SK-OV-3): 17.8 µM (inactive)
- GI50 (HT-29): 34.4 µM (inactive)
- GI50 (SN12C): 19.2 µM (inactive)
- GI50 (EKVX): 20.7 µM (inactive)
- GI50 (CAKI-1): 18.7 µM (inactive)
- GI50 (MOLT-4): 19.6 µM (inactive)
- GI50 (KM12): 34 µM (inactive)
- GI50 (A549): 17.4 µM (inactive)
- GI50 (OVCAR-4): 32.6 µM (inactive)
- GI50 (LOX IMVI): 20.3 µM (inactive)
- GI50 (HCC 2998): 20.5 µM (inactive)
- GI50 (MDA-MB-231): 28.4 µM (inactive)
- GI50 (HCT-116): 21.3 µM (inactive)
- GI50 (MCF7): 21 µM (inactive)
- GI50 (COLO 205): 31.4 µM (inactive)
- GI50 (UO-31): 15.8 µM (inactive)
